According to ChEMBL document CHEMBL1124506, “Synthesis and antimicrobial properties of substituted beta-aminoxypropionyl penicillins and cephalosporins” (1989):
Converted amounts (≈) assume the structure as drawn.

Columns and labels:
Format in all cases: functional
[1] = Inhibition of gram positive bacteria growth.
[2] = Inhibition of gram negative (resistant) growth.
[3] = test system: Staphylococcus aureus; test: Inhibition of gram positive (resistant) bacteria growth.
[4] = Inhibition of gram negative bacteria growth.

| SMILES | MIC [1] [µg/mL] | MIC [2] [µg/mL] | MIC [3] [µg/mL] | MIC [4] [µg/mL] |
| --- | --- | --- | --- | --- |
| CC1(C)SC2C(NC(=O)CCON=C3CCCC3)C(=O)N2[C@H]1C(=O)[O-].[K+] (some centres undefined) | 0.06 | > 200 | 25 | 53 |
| CC(=O)OCC1=C(C(=O)[O-])N2C(=O)C(NC(=O)CCO/N=C(\C)c3ccc(Cl)cc3)C2SC1.[K+] (centres undefined) | 0.25 | > 200 | 4 | 151 |
| CCCC(CCC)=NOCCC(=O)NC1C(=O)N2C(C(=O)O)=C(C)CSC12 (centres undefined) | 16.4 (≈ 41.3 µM) | > 200 | 100 (≈ 252 µM) | > 200 |
| CC1(C)SC2C(NC(=O)CCON=C3CCCCC3)C(=O)N2[C@H]1C(=O)[O-].[K+] (some centres undefined) | 0.2 | > 200 | 25 | 107 |
| CC(=O)OCC1=C(C(=O)O)N2C(=O)C(NC(=O)CCON=C3c4ccccc4-c4ccccc43)C2SC1 (centres undefined) | 0.02 (≈ 0.0383 µM) | > 100 | 0.25 (≈ 0.479 µM) | 44 (≈ 84.4 µM) |
| CC(=O)OCC1=C(C(=O)O)N2C(=O)C(NC(=O)CCON=C(C)C)C2SC1 (centres undefined) | 1.7 (≈ 4.26 µM) | > 200 | 6.2 (≈ 15.5 µM) | 174 (≈ 436 µM) |
| CC(=O)OCC1=C(C(=O)O)N2C(=O)C(NC(=O)Cc3ccccc3)C2SC1 (centres undefined) | 1.06 (≈ 2.72 µM) | > 200 | 12.6 (≈ 32.3 µM) | 29 (≈ 74.3 µM) |
| CC(=O)OCC1=C(C(=O)O)N2C(=O)C(NC(=O)CCON=C3CCCCC3)C2SC1 (centres undefined) | 0.5 (≈ 1.14 µM) | > 200 | 1.9 (≈ 4.32 µM) | 174 (≈ 396 µM) |
| CC(=O)OCC1=C(C(=O)O)N2C(=O)C(NC(=O)CCO/N=C\c3ccccc3)C2SC1 (centres undefined) | 0.22 (≈ 0.492 µM) | > 200 | 4 (≈ 8.94 µM) | 71 (≈ 159 µM) |
| CC1=C(C(=O)O)N2C(=O)C(NC(=O)Cc3ccccc3)C2SC1 (centres undefined) | 6.2 (≈ 18.7 µM) | > 200 | 200 (≈ 602 µM) | 123 (≈ 370 µM) |
| CC1=C(C(=O)O)N2C(=O)C(NC(=O)CCO/N=C(\C)c3ccc(Cl)cc3)C2SC1 (centres undefined) | 4.7 (≈ 10.7 µM) | > 200 | 63 (≈ 144 µM) | > 200 |
| CC1(C)SC2C(NC(=O)CCO/N=C/c3ccccc3)C(=O)N2[C@H]1C(=O)[O-].[K+] (some centres undefined) | 0.1 | > 200 | 50 | 136 |
| CC1=C(C(=O)O)N2C(=O)C(NC(=O)CCON=C3CCCCC3)C2SC1 (centres undefined) | 7.3 (≈ 19.1 µM) | > 200 | 79 (≈ 207 µM) | 131 (≈ 343 µM) |
| CC1=C(C(=O)O)N2C(=O)C(NC(=O)CCO/N=C\c3ccccc3)C2SC1 (centres undefined) | 8.2 (≈ 21.1 µM) | > 200 | 79 (≈ 203 µM) | > 200 |
| CC1=C(C(=O)O)N2C(=O)C(NC(=O)CCON=C3CCCC3)C2SC1 (centres undefined) | 9.1 (≈ 24.8 µM) | > 200 | 79 (≈ 215 µM) | 131 (≈ 357 µM) |
| CCCC(CCC)=NOCCC(=O)NC1C(=O)N2C(C(=O)O)=C(COC(C)=O)CSC12 (centres undefined) | 0.73 (≈ 1.6 µM) | > 200 | 10 (≈ 22 µM) | 93 (≈ 204 µM) |
| CC1(C)SC2C(NC(=O)CCON=C3c4ccccc4-c4ccccc43)C(=O)N2[C@H]1C(=O)[O-].[K+] (some centres undefined) | 0.06 | > 200 | 8 | 131 |
| CC1(C)S[C@@H]2[C@H](NC(=O)[C@H](N)c3ccccc3)C(=O)N2[C@H]1C(=O)O [AMPICILLIN] | 0.04 (≈ 0.114 µM) | > 200 | 10 (≈ 28.6 µM) | 1 (≈ 2.86 µM) |
| CC1=C(C(=O)O)N2C(=O)[C@@H](NC(=O)[C@H](N)c3ccccc3)[C@H]2SC1 [CEPHALEXIN ANHYDROUS] | 0.4 (≈ 1.15 µM) | > 100 | 20 (≈ 57.6 µM) | 2 (≈ 5.76 µM) |
| CC1(C)S[C@@H]2[C@H](NC(=O)Cc3ccccc3)C(=O)N2[C@H]1C(=O)O [PENICILLIN G] | 0.05 (≈ 0.15 µM) | > 200 | 79 (≈ 236 µM) | 71 (≈ 212 µM) |
| [3H]C([3H])([3H])N1C(=O)CN=C(c2ccc(Cl)cc2)c2cc(Cl)ccc21 [[3H]-RO-54864] | 0.59 (≈ 1.81 µM) | > 200 | 7.3 (≈ 22.4 µM) | 71 (≈ 218 µM) |
